Results on five compounds are retold here after article PMC9305623, “Next generation GLP-1/GIP/glucagon triple agonists normalize body weight in obese mice” (Molecular Metabolism, 2022).

Holding throughout (experiment): Receptor activation: cAMP production by CRE-luciferase reporter in stably transfected BHK cells
Common to all, as to type: cell-based
In general terms: cAMP levels reflect the balance of adenylyl cyclase and phosphodiesterase activity.

One assay concerns the target T1, hGIP Receptor (Homo sapiens, UniProt P48546).
T1 construct: expressed in transfected cells; host or cells: baby hamster kidney (BHK) cells, stably transfected, with CRE-firefly luciferase reporter
T1 sequence (P48546 22-466): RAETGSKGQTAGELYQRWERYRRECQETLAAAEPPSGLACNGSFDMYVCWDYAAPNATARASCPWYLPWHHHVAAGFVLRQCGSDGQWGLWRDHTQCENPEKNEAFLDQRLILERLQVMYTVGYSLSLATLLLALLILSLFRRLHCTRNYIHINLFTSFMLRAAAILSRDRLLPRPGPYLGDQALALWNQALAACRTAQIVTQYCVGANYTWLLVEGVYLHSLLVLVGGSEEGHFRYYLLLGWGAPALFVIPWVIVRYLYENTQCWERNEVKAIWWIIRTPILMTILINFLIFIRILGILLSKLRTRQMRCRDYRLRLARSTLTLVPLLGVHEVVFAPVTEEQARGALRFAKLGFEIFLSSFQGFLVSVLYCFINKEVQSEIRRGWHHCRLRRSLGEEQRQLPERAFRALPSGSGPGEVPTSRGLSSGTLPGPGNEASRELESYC
The settings on record: for hGIP Receptor Relative Potency %: compared to the native ligand for the receptor. The protocol:
(§1) Cyclic AMP (cAMP) production was assessed as a proxy for receptor activation using stably transfected baby hamster kidney (BHK) cell lines expressing the DNA for one individual receptor (GLP-1R, GIPR, GcgR; human- or mouse-specific sequence) and the DNA for the firefly luciferase reporter gene linked to the cAMP response element (CRE). The cells were kept in continuous culture at 37 °C and 5% CO2 in Dulbecco's Modified Eagle Medium (DMEM) supplemented with 10% heat-inactivated fetal bovine serum (HI-FBS), 300 μg/mL hygromycin, and 500 μg/mL G418; for cell lines expressing GIPR, the G418 concentration was lowered to 400 μg/mL. Cells were plated in a 96-well poly-D-lysine-coated plate at 5,000 cells per well in growth media and incubated overnight at 37 °C with 5% CO2. After the overnight incubation, the media was removed, the plate was washed once in Dulbecco's phosphase-buffered saline (DPBS), and 50 μL of assay buffer (DMEM without phenol red, 10 mM HEPES, 1x Glutamax, 1% ovalbumin, 0.1% Pluronic F-68) was added to each well. […] Aliquots of the dilution curves were added to the cell plate in a volume of 50 μL per well resulting in final assay concentrations ranging from 1 × 10^−14 to 1 × 10^−7 M. The assay plate was incubated for 3 h at 37 °C and 5% CO2. After the incubation, the assay plate was washed once with DPBS. A 100 μL aliquot of DPBS was added to each well followed by 100 μL of steadylite plus reagent (PerkinElmer). The assay plate was covered to protect reagent from light, shaken at 250 rpm at room temperature for 30 min, and read in a microtiter plate reader. EC50 values were calculated using Prism software (GraphPad) with the nonlinear regression log(agonist) vs. response. A minimum of two replicates were measured for each sample.

A further assay deals with T2, hGLP-1 Receptor (Homo sapiens, UniProt P43220).
T2 construct: expressed in transfected cells; host or cells: baby hamster kidney (BHK) cells, stably transfected, with CRE-firefly luciferase reporter
T2 sequence (P43220 24-463): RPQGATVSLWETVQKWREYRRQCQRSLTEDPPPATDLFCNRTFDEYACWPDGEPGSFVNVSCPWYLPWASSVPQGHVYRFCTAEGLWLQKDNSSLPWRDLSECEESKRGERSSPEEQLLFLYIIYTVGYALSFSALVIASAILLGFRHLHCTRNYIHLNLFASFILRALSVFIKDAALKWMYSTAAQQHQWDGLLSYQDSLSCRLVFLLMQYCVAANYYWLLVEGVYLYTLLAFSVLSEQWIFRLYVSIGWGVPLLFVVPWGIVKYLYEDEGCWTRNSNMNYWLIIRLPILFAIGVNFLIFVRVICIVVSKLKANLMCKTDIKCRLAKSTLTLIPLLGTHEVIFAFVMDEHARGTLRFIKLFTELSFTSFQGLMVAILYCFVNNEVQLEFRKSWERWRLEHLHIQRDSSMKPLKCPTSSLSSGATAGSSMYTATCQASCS
The settings on record: for hGLP-1 Receptor Relative Potency %: compared to the native ligand for the receptor. The protocol: as §1

The target of a further assay is T3, hGcg Receptor (Homo sapiens, UniProt P47871).
T3 construct: expressed in transfected cells; host or cells: baby hamster kidney (BHK) cells, stably transfected, with CRE-firefly luciferase reporter
T3 sequence (P47871 26-477): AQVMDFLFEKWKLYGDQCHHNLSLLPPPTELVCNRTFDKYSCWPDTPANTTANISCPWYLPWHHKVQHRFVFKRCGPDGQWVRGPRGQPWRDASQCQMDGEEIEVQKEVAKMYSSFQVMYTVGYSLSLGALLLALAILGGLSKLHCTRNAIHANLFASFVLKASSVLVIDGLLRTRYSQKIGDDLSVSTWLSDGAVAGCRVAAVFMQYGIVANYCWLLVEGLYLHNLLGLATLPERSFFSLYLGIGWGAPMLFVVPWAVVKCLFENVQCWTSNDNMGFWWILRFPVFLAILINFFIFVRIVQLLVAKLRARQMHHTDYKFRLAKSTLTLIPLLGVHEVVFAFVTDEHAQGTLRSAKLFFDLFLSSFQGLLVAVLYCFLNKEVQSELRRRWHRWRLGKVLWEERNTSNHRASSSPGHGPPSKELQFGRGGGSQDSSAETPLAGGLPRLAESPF
The settings on record: for hGcg Receptor Relative Potency %: compared to the native ligand for the receptor. The protocol: as §1

pEC50: −log10 of the molar value. *1 amine or outer side, *2 acyl side, *3 side chain or, on linkers, in order; H or OH if unused. Where a SMILES comes first, the peptide text is derived from it. Side-chain parts run from the residue outwards. [ ]: non-standard residue; d: D form. The star is where a group is joined. C20 diacid = O=C(O)CCCCCCCCCCCCCCCCCCC(=O)*; γGlu = O=C(O)[C@H](CCC(=O)[*:2])N[*:1]; εLys = N[C@@H](CCCCN[*:1])C(=O)[*:2]; AEEA = NCCOCCOCC(=O)O; Aib = CC(C)(N)C(=O)O

For the compound `CCCCCCCCCCCCCCCC(=O)NCCCC[C@H](NC(=O)[C@H](CO)NC(=O)[C@@H]1CCCN1C(=O)[C@@H]1CCCN1C(=O)[C@@H]1CCCN1C(=O)[C@H](C)NC(=O)CNC(=O)[C@H](CO)NC(=O)[C@H](CO)NC(=O)[C@@H]1CCCN1C(=O)CNC(=O)CNC(=O)[C@H](C)NC(=O)[C@H](CC(C)C)NC(=O)[C@H](CC(C)C)NC(=O)[C@H](Cc1c[nH]c2ccccc12)NC(=O)[C@H](CC(N)=O)NC(=O)[C@@H](NC(=O)[C@H](Cc1ccccc1)NC(=O)[C@H](CCC(=O)O)NC(=O)C(C)(C)NC(=O)[C@H](C)NC(=O)[C@H](C)NC(=O)[C@H](CCC(N)=O)NC(=O)[C@H](CCCCN)NC(=O)[C@H](CC(=O)O)NC(=O)[C@H](CC(C)C)NC(=O)[C@H](Cc1ccc(O)cc1)NC(=O)[C@@H](NC(=O)[C@H](CO)NC(=O)[C@H](Cc1ccc(O)cc1)NC(=O)[C@H](CC(=O)O)NC(=O)[C@H](CO)NC(=O)[C@@H](NC(=O)[C@H](Cc1ccccc1)NC(=O)[C@@H](NC(=O)CNC(=O)[C@H](CCC(N)=O)NC(=O)C(C)(C)NC(=O)[C@@H](N)Cc1ccc(O)cc1)[C@@H](C)O)[C@@H](C)O)[C@@H](C)CC)C(C)C)C(N)=O` [Compound 5], the “hGIP Receptor Relative Potency %” value at hGIP Receptor worked out at 173%. Moreover, the “hGLP-1 Receptor Relative Potency %” value at hGLP-1 Receptor was determined as 199%. For the same compound, at hGcg Receptor, the “hGcg Receptor Relative Potency %” value came out at 33%.

With `CC[C@H](C)[C@H](NC(=O)[C@H](CO)NC(=O)[C@H](Cc1ccc(O)cc1)NC(=O)[C@H](CC(=O)O)NC(=O)[C@H](CO)NC(=O)[C@@H](NC(=O)[C@H](Cc1ccccc1)NC(=O)[C@@H](NC(=O)CNC(=O)[C@H](CCC(N)=O)NC(=O)C(C)(C)NC(=O)[C@@H](N)Cc1ccc(O)cc1)[C@@H](C)O)[C@@H](C)O)C(=O)N[C@@H](Cc1ccc(O)cc1)C(=O)N[C@@H](CC(C)C)C(=O)N[C@@H](CC(=O)O)C(=O)N[C@@H](CCCCN)C(=O)N[C@@H](CCC(N)=O)C(=O)N[C@@H](C)C(=O)N[C@@H](C)C(=O)NC(C)(C)C(=O)N[C@@H](CCC(=O)O)C(=O)N[C@@H](Cc1ccccc1)C(=O)N[C@H](C(=O)N[C@@H](CC(N)=O)C(=O)N[C@@H](Cc1c[nH]c2ccccc12)C(=O)N[C@@H](CC(C)C)C(=O)N[C@@H](CC(C)C)C(=O)N[C@@H](C)C(=O)NCC(=O)NCC(=O)N1CCC[C@H]1C(=O)N[C@@H](CO)C(=O)N[C@@H](CO)C(=O)NCC(=O)N[C@@H](C)C(=O)N1CCC[C@H]1C(=O)N1CCC[C@H]1C(=O)N1CCC[C@H]1C(=O)N[C@@H](CO)C(=O)N[C@@H](CCCCNC(=O)COCCOCCNC(=O)COCCOCCNC(=O)CC[C@H](NC(=O)CCCCCCCCCCCCCCCCC(=O)O)C(=O)O)C(N)=O)C(C)C` [Compound 6], the “hGIP Receptor Relative Potency %” value at hGIP Receptor was 23%. For the same compound, the “hGLP-1 Receptor Relative Potency %” value on hGLP-1 Receptor worked out at 59%. Further, the “hGcg Receptor Relative Potency %” value at hGcg Receptor was found to be 1%.

Turning to `CC[C@H](C)[C@H](NC(=O)[C@H](CO)NC(=O)[C@H](Cc1ccc(O)cc1)NC(=O)[C@H](CC(=O)O)NC(=O)[C@H](CO)NC(=O)[C@@H](NC(=O)[C@H](Cc1ccccc1)NC(=O)[C@@H](NC(=O)CNC(=O)[C@H](CCC(N)=O)NC(=O)C(C)(C)NC(=O)[C@@H](N)Cc1ccc(O)cc1)[C@@H](C)O)[C@@H](C)O)C(=O)N[C@@H](Cc1ccc(O)cc1)C(=O)N[C@@H](CC(C)C)C(=O)N[C@@H](CCC(=O)O)C(=O)N[C@@H](CCCCNC(=O)COCCOCCNC(=O)COCCOCCNC(=O)CC[C@H](NC(=O)CCCCCCCCCCCCCCCCCCC(=O)O)C(=O)O)C(=O)N[C@@H](CCC(N)=O)C(=O)N[C@@H](C)C(=O)N[C@@H](C)C(=O)NC(C)(C)C(=O)N[C@@H](CCC(=O)O)C(=O)N[C@@H](Cc1ccccc1)C(=O)N[C@H](C(=O)N[C@@H](CCC(N)=O)C(=O)N[C@@H](Cc1c[nH]c2ccccc12)C(=O)N[C@@H](CC(C)C)C(=O)N[C@@H](CC(C)C)C(=O)N[C@@H](CCC(=O)O)C(=O)NCC(=O)NCC(=O)N1CCC[C@H]1C(=O)N[C@@H](CO)C(=O)N[C@@H](CO)C(=O)NCC(=O)N[C@@H](C)C(=O)N1CCC[C@H]1C(=O)N1CCC[C@H]1C(=O)N1CCC[C@H]1C(=O)N[C@@H](CO)C(N)=O)C(C)C` [Compound 9] (H-Y[Aib]QGTFTSDYSIYLEK([AEEA-AEEA-γGlu-C20 diacid])QAA[Aib]EFVQWLLEGGPSSGAPPPS-NH2), the pEC50 was 10.94 at hGIP Receptor (BHK cells expressing human GIPR and CRE-luciferase, 12-point curve, 3 h, 37 °C, assay buffer with 1% ovalbumin, minimum of two replicates); 11.51 at hGLP-1 Receptor (BHK cells expressing human GLP-1R and CRE-luciferase, 12-point curve, 3 h, 37 °C, assay buffer with 1% ovalbumin, minimum of two replicates); 9.73 at hGcg Receptor (BHK cells expressing human GcgR and CRE-luciferase, 12-point curve, 3 h, 37 °C, assay buffer with 1% ovalbumin, minimum of two replicates). In addition, the “hGIP Receptor Relative Potency %” value at hGIP Receptor is given as 92%. Further, the “hGLP-1 Receptor Relative Potency %” value on hGLP-1 Receptor turned out to be 220%. The “hGcg Receptor Relative Potency %” value on hGcg Receptor was 5%.

For `CC[C@H](C)[C@H](NC(=O)[C@H](CO)NC(=O)[C@H](Cc1ccc(O)cc1)NC(=O)[C@H](CC(=O)O)NC(=O)[C@H](CO)NC(=O)[C@@H](NC(=O)[C@H](Cc1ccccc1)NC(=O)[C@@H](NC(=O)CNC(=O)[C@H](CCC(N)=O)NC(=O)C(C)(C)NC(=O)[C@@H](N)Cc1ccc(O)cc1)[C@@H](C)O)[C@@H](C)O)C(=O)N[C@@H](Cc1ccc(O)cc1)C(=O)N[C@@H](CC(C)C)C(=O)N[C@@H](CCC(=O)O)C(=O)N[C@@H](CCCCNC(=O)[C@@H](N)CCCCNC(=O)[C@@H](N)CCCCNC(=O)CC[C@H](NC(=O)CCCCCCCCCCCCCCCCCCC(=O)O)C(=O)O)C(=O)N[C@@H](CCC(N)=O)C(=O)N[C@@H](C)C(=O)N[C@@H](C)C(=O)NC(C)(C)C(=O)N[C@@H](CCC(=O)O)C(=O)N[C@@H](Cc1ccccc1)C(=O)N[C@H](C(=O)N[C@@H](CCC(N)=O)C(=O)N[C@@H](Cc1c[nH]c2ccccc12)C(=O)N[C@@H](CC(C)C)C(=O)N[C@@H](CC(C)C)C(=O)N[C@@H](CCC(=O)O)C(=O)NCC(=O)NCC(=O)N1CCC[C@H]1C(=O)N[C@@H](CO)C(=O)N[C@@H](CO)C(=O)NCC(=O)N[C@@H](C)C(=O)N1CCC[C@H]1C(=O)N1CCC[C@H]1C(=O)N1CCC[C@H]1C(=O)N[C@@H](CO)C(N)=O)C(C)C` [Compound 10] (H-Y[Aib]QGTFTSDYSIYLEK([εLys-εLys-γGlu-C20 diacid])QAA[Aib]EFVQWLLEGGPSSGAPPPS-NH2), the “hGIP Receptor Relative Potency %” value on hGIP Receptor stood at 150%. In addition, the “hGLP-1 Receptor Relative Potency %” value at hGLP-1 Receptor is recorded as 244%. The “hGcg Receptor Relative Potency %” value at hGcg Receptor came out at 11%.

For the compound `CC[C@H](C)[C@H](NC(=O)[C@H](CO)NC(=O)[C@H](Cc1ccc(O)cc1)NC(=O)[C@H](CC(=O)O)NC(=O)[C@H](CO)NC(=O)[C@@H](NC(=O)[C@H](Cc1ccccc1)NC(=O)[C@@H](NC(=O)CNC(=O)[C@H](Cc1c[nH]cn1)NC(=O)C(C)(C)NC(=O)[C@@H](N)Cc1ccc(O)cc1)[C@@H](C)O)[C@@H](C)O)C(=O)N[C@@H](Cc1ccc(O)cc1)C(=O)N[C@@H](CC(C)C)C(=O)N[C@@H](CCC(=O)O)C(=O)N[C@@H](CCCCNC(=O)[C@@H](N)CCCCNC(=O)[C@@H](N)CCCCNC(=O)CC[C@H](NC(=O)CCCCCCCCCCCCCCCCCCC(=O)O)C(=O)O)C(=O)N[C@@H](CCC(N)=O)C(=O)N[C@@H](C)C(=O)N[C@@H](C)C(=O)NC(C)(C)C(=O)N[C@@H](CCC(=O)O)C(=O)N[C@@H](Cc1ccccc1)C(=O)N[C@H](C(=O)N[C@@H](CCC(N)=O)C(=O)N[C@@H](Cc1c[nH]c2ccccc12)C(=O)N[C@@H](CC(C)C)C(=O)N[C@@H](CC(C)C)C(=O)N[C@@H](CCC(=O)O)C(=O)NCC(=O)NCC(=O)N1CCC[C@H]1C(=O)N[C@@H](CO)C(=O)N[C@@H](CO)C(=O)NCC(=O)N[C@@H](C)C(=O)N1CCC[C@H]1C(=O)N1CCC[C@H]1C(=O)N1CCC[C@H]1C(=O)N[C@@H](CO)C(N)=O)C(C)C` [Compound 11] (H-Y[Aib]HGTFTSDYSIYLEK([εLys-εLys-γGlu-C20 diacid])QAA[Aib]EFVQWLLEGGPSSGAPPPS-NH2), on hGIP Receptor, the “hGIP Receptor Relative Potency %” value is 147%. The “hGLP-1 Receptor Relative Potency %” value on hGLP-1 Receptor turned out to be 7%. At hGcg Receptor, the “hGcg Receptor Relative Potency %” value came to 13%.

The term pEC50 denotes −log10 of the EC50, conventionally taken in molar units. Low values mean a high EC50, high ones a low EC50.
